Source: patent publication EP0545103A1, “Insecticidal, acaricidal and molluscicidal 1-(substituted) thioalkylpyrroles” (priority 1991, dated 1993)

Experiments:
Format in all cases: in vivo
Parameters in all cases: key: 0: no effect; 10-25% kill; 26-35% kill; 36-45% kill; 46-55% kill; 56-65% kill; 66-75% kill; 76-85% kill; 86-99% kill; 9: 100% kill
[1] = tested on: Aphis fabae, mixed instar, bean aphid; experiment: Bean aphid spray test on nasturtium; details: 100 ppm
How it was run: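 Mortality rated on a scale 2 days after treatment of aphid-infested (100-200 per plant, infested a day earlier) ~5 cm nasturtiums sprayed to complete coverage. Spray solutions: 10,000 ppm compound in 35% acetone in water, with further water dilutions.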

[2] = tested on: Spodoptera eridania, 3rd instar larvae, southern armyworm; experiment: Southern armyworm 3rd instar test, dipped limabean leaf; details: for ARMYWORM Day 3: rating at 3 days; for ARMYWORM Day 5: rating at 5 days
How it was run: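 Ten 3rd instar larvae fed on limabean leaves that had been dipped for 3 s in test solution and dried. Test solutions were diluted in water from a 10,000 ppm stock in 35% acetone/water. Ratings at days 3 and 5 covered death, feeding reduction and abnormal molting.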

[3] = tested on: Empoasca abrupta, adult, western potato leafhopper; experiment: Western potato leafhopper systemic uptake test; details: 100 ppm
How it was run: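 Leafhopper mortality, rated on a scale, scored 2 days after about 10 adults were confined with a leaf in a moist dish. The leaf came from a cut lima bean stem that had taken up the compound emulsion (100 ppm and 10-fold dilutions) over 3 days at 27 °C.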

[4] = tested on: Spodoptera eridania, 3rd instar larvae, southern armyworm; experiment: Southern armyworm systemic uptake (stem systemic) test; details: cut stem in emulsion 3 days
[5] = tested on: Tetranychus urticae (OP-resistant strain), 2-spotted spider mite; experiment: 2-spotted spider mite test, dipped infested limabean plants
How it was run: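 Compound dissolved at 10,000 ppm in 35% aqueous acetone, then water-diluted; limabean primary leaves carrying ~100 OP-resistant mites each are dipped 3 s and dried. Adult mortality read on one leaf after 2 days, eggs/newly emerged nymphs on another after 5 days, scored by rating scale.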

[6] = tested on: Empoasca abrupta, adult, western potato leafhopper; experiment: Western potato leafhopper contact test, dipped limabean leaf; details: contact, rating scale 0-9
How it was run: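 Sieva limabean leaf dipped 3 s in compound solution (diluted in water from 10,000 ppm stock in 35% acetone), dried, and infested with about 10 adult leafhoppers on moist filter paper. Mortality counted after 2 days and scored on a rating scale.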

[7] = systemic uptake, rating scale 0-9
[8] = 10 ppm, adult mites, rating scale 0-9
[9] = 10 ppm, mite eggs, rating scale 0-9
[10] = 100 ppm, adult mites, rating scale 0-9
[11] = 100 ppm, mite eggs, rating scale 0-9
[12] = 300 ppm, adult mites, rating scale 0-9
[13] = 300 ppm, mite eggs, rating scale 0-9
[14] = 300 ppm, mite nymphs, rating scale 0-9
[15] = 10 ppm, mite nymphs, rating scale 0-9
[16] = 100 ppm, mite nymphs, rating scale 0-9
[17] = spray, mortality rating after 2 days
[18] = cut stem in emulsion 3 days, mortality rating after 2 days
[19] = 10 ppm, mortality rating after 2 days
[20] = 100 ppm, mortality rating after 2 days
[21] = 300 ppm, mortality rating after 2 days

| SMILES | APHIDS ([1]; rating scale 0-9) | ARMYWORM Day 3 ([2]; 10 ppm) | ARMYWORM Day 5 ([2]; 10 ppm) | ARMYWORM Day 3 ([2]; 100 ppm) | ARMYWORM Day 5 ([2]; 100 ppm) | ARMYWORM Day 3 ([2]; 1000 ppm) | ARMYWORM Day 5 ([2]; 1000 ppm) | LEAFHOPPER Systemic [3, 7] | ARMYWORM Stem Sys [4] | OP-RESISTANT MITES Adult [5, 8] | OP-RESISTANT MITES Egg [5, 9] | OP-RESISTANT MITES Adult [5, 10] | OP-RESISTANT MITES Egg [5, 11] | OP-RESISTANT MITES Adult [5, 12] | OP-RESISTANT MITES Egg [5, 13] | OP-RESISTANT MITES Nymph [5, 14] | OP-RESISTANT MITES Nymph [5, 15] | LEAFHOPPER Contact ([6]; 100 ppm) | also measured |
| --- | --- | --- | --- | --- | --- | --- | --- | --- | --- | --- | --- | --- | --- | --- | --- | --- | --- | --- | --- |
| CC(C)OC(=S)SCn1c(-c2ccc(Cl)cc2)c(C#N)c(Br)c1C(F)(F)F [Example 30] | 3 (36-45% kill) | 9 (100% kill) | 9 (100% kill) | 9 (100% kill) | 9 (100% kill) | 9 (100% kill) | 9 (100% kill) | 0 | 0 | 9 (100% kill) | 9 (100% kill) | 9 (100% kill) | 9 (100% kill) | 9 (100% kill) | 0 | 0 |  |  |  |
| CN(C)C(=S)SCn1c(Cl)c(C#N)c(Cl)c1-c1ccc(Cl)c(Cl)c1 [Example 36] | 0 |  |  |  |  |  |  | 0 | 0 | 0 | 0 | 0 | 0 | 7 (76-85% kill) | 0 | 0 | 0 | 6 (66-75% kill) | OP-RESISTANT MITES Nymph [5, 16]: 0 |
| CN(C)C(=S)SCn1c(-c2ccc(Cl)cc2)c(C#N)c(Cl)c1C(F)(F)F [Example 21] |  | 9 (100% kill) | 9 (100% kill) | 9 (100% kill) | 9 (100% kill) | 9 (100% kill) | 9 (100% kill) |  | 0 |  |  |  |  |  |  |  |  |  | APHIDS [1, 17]: 0; LEAFHOPPER Systemic [3, 18]: 0; OP-RESISTANT MITES Adult [5, 19]: 9 (100% kill); OP-RESISTANT MITES Egg ([5]; 10 ppm, rating after 5 days): 0; OP-RESISTANT MITES Nymph ([5]; 10 ppm, rating after 5 days): 0; OP-RESISTANT MITES Adult [5, 20]: 9 (100% kill); OP-RESISTANT MITES Egg ([5]; 100 ppm, rating after 5 days): 8 (86-99% kill); OP-RESISTANT MITES Nymph ([5]; 100 ppm, rating after 5 days): 0; OP-RESISTANT MITES Adult [5, 21]: 9 (100% kill); OP-RESISTANT MITES Egg ([5]; 300 ppm, rating after 5 days): 0; OP-RESISTANT MITES Nymph ([5]; 300 ppm, rating after 5 days): 9 (100% kill) |
| CN=C(NC)SCn1c(Br)c(Br)c(C#N)c1Br [Example 14] | 0 | 0 | 0 | 9 (100% kill) | 9 (100% kill) | 9 (100% kill) | 9 (100% kill) | 7 (76-85% kill) | 0 |  |  |  |  | 0 | 0 | 0 |  | 0 |  |
| FC(F)(F)c1c(Br)c(-c2ccc(Cl)c(Cl)c2)n(CSC2=NCCCN2)c1C(F)(F)F [Example 17] | 0 | 9 (100% kill) | 9 (100% kill) | 9 (100% kill) | 9 (100% kill) | 9 (100% kill) | 9 (100% kill) | 0 | 0 | 0 | 0 | 0 | 7 (76-85% kill) | 7 (76-85% kill) | 0 | 0 | 0 | 5 (56-65% kill) | OP-RESISTANT MITES Nymph [5, 16]: 0 |
| N=C(N)SCn1c(-c2ccc(Cl)c(Cl)c2)c(Br)c(C(F)(F)F)c1C(F)(F)F [Example 18] | 0 | 0 | 0 | 9 (100% kill) | 9 (100% kill) | 9 (100% kill) | 9 (100% kill) | 0 | 0 | 0 | 0 | 9 (100% kill) | 0 | 9 (100% kill) | 0 | 0 | 0 |  | OP-RESISTANT MITES Nymph [5, 16]: 0 |
| N#Cc1c(Br)c(C(F)(F)F)n(CSC2=NCCS2)c1-c1ccc(Cl)cc1 [Example 16] | 8 (86-99% kill) | 9 (100% kill) | 9 (100% kill) | 9 (100% kill) | 9 (100% kill) | 9 (100% kill) | 9 (100% kill) | 0 | 4 (46-55% kill) |  |  |  |  | 0 | 0 | 0 |  | 9 (100% kill) | LEAFHOPPER Contact ([6]; 10 ppm): 9 (100% kill) |
| CN=C(NC)SCn1c(Cl)c(C#N)c(Cl)c1-c1ccc(Cl)c(Cl)c1 [Example 19] | 0 | 0 | 0 | 9 (100% kill) | 9 (100% kill) | 9 (100% kill) | 9 (100% kill) | 0 | 0 |  |  |  |  | 5 (56-65% kill) | 0 | 0 |  | 9 (100% kill) | LEAFHOPPER Contact ([6]; 10 ppm): 0 |
| CN=C(NC)SCn1c(-c2ccc(Cl)cc2)c(C#N)c(Cl)c1C(F)(F)F [Example 2] |  | 9 (100% kill) | 9 (100% kill) | 9 (100% kill) | 9 (100% kill) | 9 (100% kill) | 9 (100% kill) |  | 0 |  |  |  |  |  |  |  |  |  | APHIDS [1, 17]: 0; LEAFHOPPER Systemic [3, 18]: 0; OP-RESISTANT MITES Egg ([5]; 10 ppm, rating after 5 days): 0; OP-RESISTANT MITES Egg ([5]; 100 ppm, rating after 5 days): 9 (100% kill); OP-RESISTANT MITES Egg ([5]; 300 ppm, rating after 5 days): 0 |
| N#Cc1c(Br)c(Br)n(CSc2ccccc2)c1-c1ccc(C(F)(F)F)cc1 [Example 45, 4,5-dibromo-1-[(phenylthio)methyl]-2-(alpha, alpha,alpha-trifluoro-p-tolyl)pyrrole-3-carbonitrile] |  |  |  | 0 | 0 | 8 (86-99% kill) | 8 (86-99% kill) |  | 0 |  |  |  |  |  |  |  |  |  |  |
| CCOC(=S)SCn1c(Cl)c(Cl)c(C#N)c1-c1ccc(Cl)c(Cl)c1 [Example 28] | 0 |  |  |  |  |  |  | 0 | 0 |  | 0 |  | 9 (100% kill) |  | 0 | 0 | 3 (36-45% kill) | 9 (100% kill) | LEAFHOPPER Contact ([6]; 10 ppm): 0 |
| N#Cc1c(Br)c(C(F)(F)F)n(CSC2=NCCN2)c1-c1ccc(Cl)cc1 [Example 7] |  | 9 (100% kill) | 9 (100% kill) | 9 (100% kill) | 9 (100% kill) | 9 (100% kill) | 9 (100% kill) |  | 0 |  |  |  |  |  |  |  |  |  | APHIDS [1, 17]: 0; LEAFHOPPER Systemic [3, 18]: 0; OP-RESISTANT MITES Adult [5, 19]: 9 (100% kill); OP-RESISTANT MITES Egg ([5]; 10 ppm, rating after 5 days): 0; OP-RESISTANT MITES Nymph ([5]; 10 ppm, rating after 5 days): 0; OP-RESISTANT MITES Adult [5, 20]: 9 (100% kill); OP-RESISTANT MITES Egg ([5]; 100 ppm, rating after 5 days): 9 (100% kill); OP-RESISTANT MITES Adult [5, 21]: 9 (100% kill); OP-RESISTANT MITES Egg ([5]; 300 ppm, rating after 5 days): 0; OP-RESISTANT MITES Nymph ([5]; 300 ppm, rating after 5 days): 0 |
